These results are taken from PMC3856889 (Molecular cancer therapeutics, 2013).

Data set [1] concerns mice. The following applies: cited from earlier work.
Data set [2] relates to C57 BL/6 mice. Briefly: Maximum tolerable dose, i.p. injection. The format is in vivo, mouse. The following applies: dose level causing no deaths, chloride salt.
The test system of data set [3] is acetyl cholinesterase (AChE). The following applies: in vitro and in vivo; cited from earlier work.
Data set [4] relates to supercoiled plasmid pUC18 DNA. The following applies: cited from earlier work.
For data set [5] the following is noted: cited from earlier work; for potential of tatpp-based reductive processes: vs. NHE at pH 7.0.
Data set [6] deals with H226. Briefly: MTT cytotoxicity assay, H226 NSCLC cells. The following applies: read-out: IC50 (µM) H226, 96-h incubation. In kind it is cell-based, human. For orientation: Tetrazolium assays rely on reduction of a dye to a coloured formazan, in cell work by metabolically active cells.
For data set [7], the system named is H358. Briefly: MTT cytotoxicity assay, H358 NSCLC cells. The following applies: read-out: IC50 (µM) H358, 96-h incubation. The format is cell-based, human.
The conditions of data set [8]: radiolabeled complex, in vivo; cited from earlier work.
Data set [9] has as its system H358 cells. Briefly: Non-hypoxic/hypoxic cytotoxicity, cell count with Trypan blue. The format is cell-based, human. The following applies: hypoxic 1 % O2 relative to normoxic, 24 h, Fig. 2A.
Data set [10] can be described thus: Water solubility of the salts. The following applies: chloride salts.
In data set [11] the test system is NCI-60 panel. Briefly: NCI-60 cell line one-dose screen. In kind it is cell-based. The following applies: single dose 10 µM.
In data set [12] the test system is HUVSMC. Briefly: Cytotoxicity towards normal HUVSMC cells. The format is cell-based, human. The following applies: read-out: IC50 for normal HUVSMC cells.
Data set [13] relates to HUVSMC. Briefly: Apoptosis, HUVSMC. In kind it is cell-based, human. The following applies: similar treatment.
In data set [14] the test system is HUVEC. Briefly: Cytotoxicity towards normal HUVEC cells. In kind it is cell-based, human.
Data set [15] has as its system pAKT, pEGFR, PI3K, pRb, CDK4, cyclinB1, bcl2, Bax in H358 cells. Briefly: Western blot of apoptotic, proliferative and tumor suppressor proteins. The following applies: H358, 10 µM, 24 h, Fig. 2D. In kind it is cell-based, human. Background: Immunoblotting shows a protein as a band on a membrane.
Data set [16] has as its system supercoiled plasmid pUC18 DNA. Briefly: DNA cleavage assay. The format is biochemical.
Data set [17] concerns HUVEC. Briefly: Apoptosis, caspase-cleavage and TUNEL, HUVEC. In kind it is cell-based, human. The following applies: 10 µM.

“And” between values parts separate entries of the source, which are not always exact repeats. Equal entries are not always repeated. Where only a bound is given, the exact number is not on record here.

By IC50 is commonly meant the concentration needed to halve the response being measured. With `[Ru+2].c1cnc2c(c1)ccc1cccnc12.c1cnc2c(c1)ccc1cccnc12.c1cnc2c(c1)ccc1cccnc12` [1^2+, rac-[Ru(phen)3]^2+], the minimum lethal dose in [1] (iodo salt, mice, i.p. injection) is 12 µmol/kg. Besides, the “toxicity when administered orally” value in [1] (oral) is “non-toxic”. Also, in [2], the “Maximum Tolerable Dose MTD (mg complex /kg mouse)” value is recorded as 6.6 mg complex /kg mouse and the “Maximum Tolerable Dose MTD µmol complex /kg mouse” value worked out at 9.1 µmol complex /kg mouse. Moreover, the “inhibition of acetyl cholinesterase (AChE)” value in data set [3] is reported as “competitive inhibitor”. In addition, the “DNA cleavage activity upon in situ reduction by glutathione” value in [4] is recorded as “nor do they exhibit any DNA cleavage activity”. The reduction potential required in data set [5] is on record as no more than −0.70 V. Further, the IC50 in [6] is 90 µM and 92.8 µM. In data set [7], the IC50 is 90 µM and 86.7 µM.

With `[106Ru+2].c1cnc2c(c1)ccc1cccnc12.c1cnc2c(c1)ccc1cccnc12.c1cnc2c(c1)ccc1cccnc12` [[^106Ru(phen)3]^2+], in data set [8], the “recovery in the urine” value is “nearly all the complex was recovered in the urine”.

For the molecule `[Ru+2].c1ccc(-c2ccccn2)nc1.c1ccc(-c2ccccn2)nc1.c1ccc(-c2ccccn2)nc1` [rac-[Ru(bpy)3]^2+, reference compound], the values for the concentration for half-maximal inhibition (IC50) in [6] and in data set [7] were 198 ± 15 µM and 209 ± 16 µM, respectively.

As to `[Ru+2].c1cnc2c(c1)ccc1cccnc12.c1cnc2c(c1)ccc1cccnc12.c1cnc2c(c1)ccc1cccnc12` [Δ-1^2+, Δ-[Ru(phen)3]^2+], the IC50 was 93.6 ± 6.3 µM in [6] and 64.8 ± 4.2 µM in data set [7].

For `[Ru+2].c1cnc2c(c1)ccc1cccnc12.c1cnc2c(c1)ccc1cccnc12.c1cnc2c(c1)ccc1cccnc12` [Λ-1^2+, Λ-[Ru(phen)3]^2+], the IC50 was determined as 116 ± 6.9 µM in data set [6] and 61.4 ± 4.7 µM in data set [7].

On to [Ru(phen)2(dppz)]^2+, for which the “potentiation of cytotoxicity under hypoxic conditions” value in [9] was “neither of which showed significant potentiation”.

“cis-Pt(NH3)2Cl2 [cisplatin, reference compound]”: the LD50 in data set [1] (murine acute toxicity) was ~ 57 µmol/kg. Further, the “potentiation of cytotoxicity under hypoxic conditions” value in data set [9] is “neither of which showed significant potentiation”.

Take “mix-[(phen)2Ru(tatpp)Ru(phen)2]^4+ [4^4+]”: the water solubility result in data set [10] is “water soluble”. Moreover, the “Maximum Tolerable Dose MTD (mg complex /kg mouse)” value in data set [2] amounted to 66 mg complex /kg mouse. In [2], the “Maximum Tolerable Dose MTD µmol complex /kg mouse” value worked out at 43 µmol complex /kg mouse. Further, the “DNA cleavage activity upon in situ reduction by glutathione” value in data set [4] is on record as “effective DNA cleaving agent”. Moreover, the “potential of tatpp-based reductive processes” value in data set [5] is recorded as greater than −0.25 V. The figures for the half-inhibitory concentration (IC50) in [6] and in data set [7] were 16.2 ± 1.9 µM and 15.2 ± 1.8 µM, respectively.

Take “mix-[(phen)2Ru(tpphz)Ru(phen)2]^4+ [2^4+]”: the water solubility entry in [10] is “water soluble”. Besides, in data set [2], the “Maximum Tolerable Dose MTD (mg complex /kg mouse)” value is 3.3 mg complex /kg mouse and the “Maximum Tolerable Dose MTD µmol complex /kg mouse” value was 2.5 µmol complex /kg mouse. The “DNA cleavage activity upon in situ reduction by glutathione” value in data set [4] was “nor do they exhibit any DNA cleavage activity”. The reduction potential required in data set [5] is no more than −0.70 V. The IC50 in [6] turned out to be 51.1 ± 3.4 µM. Moreover, the concentration for half-maximal inhibition (IC50) in data set [7] worked out at 41.8 ± 2.7 µM.

rac-[(phen)2Ru(tatpp)]^2+ [3^2+]: the water solubility entry in [10] is given as “water soluble”. In data set [2], the “Maximum Tolerable Dose MTD (mg complex /kg mouse)” value is reported as 67 mg complex /kg mouse. For the same molecule, in data set [2], the “Maximum Tolerable Dose MTD µmol complex /kg mouse” value was determined as 65 µmol complex /kg mouse. Besides, the “potential of tatpp-based reductive processes” value in data set [5] is greater than −0.25 V. The 50% inhibitory concentration (IC50) was 12.5 ± 1.9 µM in data set [6] and 13.2 ± 1.8 µM in data set [7].

For “ΔΔ-[(phen)2Ru(tatpp)Ru(phen)2]^4+ [ΔΔ-4^4+]”, the “Maximum Tolerable Dose MTD (mg complex /kg mouse)” value in data set [2] is given as 100 mg complex /kg mouse. In data set [2], the “Maximum Tolerable Dose MTD µmol complex /kg mouse” value is 64 µmol complex /kg mouse. Moreover, in data set [11], the “mean growth percentage, whole panel” value is recorded as 80%. Also, the 50% inhibitory concentration (IC50) in data set [12] is roughly 100 µM; in data set [6], 9.3 ± 0.9 µM; in [14] (read-out: IC50 for normal HUVEC cells), roughly 100 µM; in [7], 9.5 ± 1.2 µM. Further, the “apoptosis in HUVSMC” value in data set [13] is given as “did not show apoptosis”. Further, the “difference in cytotoxicity, malignant vs normal cells” value in [14] (malignant cell lines vs HUVEC and HUVSMC) is listed as roughly 10 fold. Moreover, the Bax level entry in data set [15] was “significantly increased”. Besides, the “kinase signaling (pAKT, pEGFR, PI3K, pRb, CDK4, cyclinB1, bcl2)” value in data set [15] is on record as “generalized decrease in kinase signaling”. In addition, in data set [16] (presence or absence of GSH, Fig. 3A), the “DNA cleavage, dependence on GSH” value is “only show DNA cleavage when GSH is present”. Moreover, the “DNA cleavage when O2 is absent” value in data set [16] (with GSH, anaerobic vs aerobic) is recorded as “appreciably enhanced”. Further, the “apoptosis in HUVEC” value in [17] was “did not show apoptosis”.

For “ΔΛ-[(phen)2Ru(tatpp)Ru(phen)2]^4+ [ΔΛ-4^4+]”, in data set [2], the “Maximum Tolerable Dose MTD (mg complex /kg mouse)” value is reported as 66 mg complex /kg mouse and the “Maximum Tolerable Dose MTD µmol complex /kg mouse” value was 43 µmol complex /kg mouse. Moreover, in [6], the IC50 worked out at 18.6 ± 1.5 µM. Besides, the 50% inhibitory concentration (IC50) in data set [7] is 15.3 ± 1.5 µM.

For the molecule Λ-[(phen)2Ru(tatpp)]^2+ [Λ-3^2+], the half-maximal inhibitory concentration (IC50) is 13 ± 2 µM in data set [6] and 13.8 ± 1.5 µM in data set [7].

Regarding “ΛΛ-[(phen)2Ru(tatpp)Ru(phen)2]^4+ [ΛΛ-4^4+]”, in [2], the “Maximum Tolerable Dose MTD (mg complex /kg mouse)” value was 66 mg complex /kg mouse. In addition, the “Maximum Tolerable Dose MTD µmol complex /kg mouse” value in data set [2] is listed as 43 µmol complex /kg mouse. The IC50 in [6] worked out at 17.3 ± 1.5 µM; in data set [7] it was 16.7 ± 1 µM.
